System: PLA2 (A. piscivorus piscivorus) induced paw edema
Assay: in vivo PLA2 murine paw edema assay
Design: species or system mouse (male CD-1)
Settings: for ED50: Mus musculus, ip
Protocol: The ability of the compounds of the invention to inhibit paw edema induced by the exogenous administration of PLA2 is measured in the in vivo PLA2 murine paw edema assay.
Non-fasted, male CD-1 mice (8 weeks old; 31-36 grams) are placed in plastic boxes in groups of six. The right hind paw volume is measured using mercury plethysmography (zero time). Compounds are dosed orally (0.5 mL of 0.5% Tween-80) 1 or 3 hours prior to PLA2 injection or intravenously (0.2 mL in 0.3% dimethylsulfoxide/saline) 3 minutes prior to PLA2 injection. A solution of purified PLA2, from the diamond back cotton mouth snake (A. piscivorus piscivorus) is prepared in saline at a concentration of 6 μg/mL. Fifty (50) μL (0.3 μg) of this PLA2 solution is injected subcutaneously into the right hind paw with a plastic 1 mL plastic syringe (27 gauge, 1" needle). Paw volume of the injected paw is measured again at 10 minutes, 30 minutes and 60 minutes after PLA2 injection. Animals are euthanized with CO2 at the completion of the study.
The paw edema is calculated by subtracting the zero time volume from the volume recorded at each time period. Mean paw edema for each treatment group is then calculated and expressed as (μL±S.E.). Drug effects are expressed as a percent change from control (vehicle) values. Statistical significance is determined by a oneway analysis of variance with LSD comparison to control (p<0.05). ED50 's are determined using repression analysis.

## COc1cccc2c1cc([N+](=O)[O-])c1c(C(=O)O)cc3c(c12)OCO3 [Aristolochic Acid, reference compound]
p.o., standard drugs
  ED50 at +10 min.: Not Active

## C[C@@H]1C[C@H]2[C@@H]3CCC4=CC(=O)C=C[C@]4(C)[C@@]3(F)[C@@H](O)C[C@]2(C)[C@@]1(O)C(=O)CO [Dexamethasone, reference compound]
p.o. 3 hr, standard drug
  ED50 at +10 min.: 10 mg/kg

## O=C(C#CCCCOc1ccc(Cl)cc1)C(F)(F)F [Example 1, 7-(4-Chlorophenoxy)-1,1,1-trifluoro-3-heptyn-2-one]
10 mg/kg i.v.
  % Change in Edema 10 min: -64%
  % Change in Edema 30 min: -34%
  % Change in Edema 60 min: -39%
100 mg/kg p.o.
  % Change in Edema 10 min: -26%
  % Change in Edema 30 min: -37%
  % Change in Edema 60 min: -23%
  ED50: 3 mg/kg

## O=C(C#CCCCn1c2ccccc2c2ccccc21)C(F)(F)F [Example 2, 7-(9H-Carbazol-9-yl)-1,1,1-trifluoro-3-heptyn-2-one]
  ED50: 1 mg/kg

## O=C(C#CCCCOc1ccc(F)cc1)C(F)(F)F [Example 3, 1,1,1-Trifluoro-7-(4-fluorophenoxy)-3-heptyn-2-one]
  ED50: 30 mg/kg

## CC(C)(C)c1ccc(OCCCC#CC(=O)C(F)(F)F)cc1 [Example 4, 7-[4-(1,1-Dimethylethyl)phenoxy]-1,1,1-trifluoro-3-heptyn-2-one]
30 mg/kg i.p.
  % Change in Edema 10 min: -45%

## O=C(C#CCCCOc1ccc(Cl)cc1)C(F)(F)CCc1ccccc1 [Example 7, 9-(4-Chlorophenoxy)-3,3-difluoro-1-phenyl-5-nonyn-4-one]
  ED50: 3 mg/kg

## COc1ccc2cc([C@H](C)C(=O)O)ccc2c1 [Naproxen, reference compound]
p.o., standard drugs
  ED50 at +10 min.: 18 mg/kg

## Luffarrellolide [reference compound]
p.o., standard drugs
  ED50 at +10 min.: Not Active

From patent US5070207A, “Phospholipase A2 inhibitors” (American Home Products Corporation, priority 1990, dated 1991)
